Activity calls are given as the source filed them.
Tests used:
[1] = biological target: T1, Estrogen receptor (Homo sapiens, UniProt P03372);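 further: potency for inhibiting coactivator peptide recruitment to the receptor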
T1 sequence (P03372 whole entry): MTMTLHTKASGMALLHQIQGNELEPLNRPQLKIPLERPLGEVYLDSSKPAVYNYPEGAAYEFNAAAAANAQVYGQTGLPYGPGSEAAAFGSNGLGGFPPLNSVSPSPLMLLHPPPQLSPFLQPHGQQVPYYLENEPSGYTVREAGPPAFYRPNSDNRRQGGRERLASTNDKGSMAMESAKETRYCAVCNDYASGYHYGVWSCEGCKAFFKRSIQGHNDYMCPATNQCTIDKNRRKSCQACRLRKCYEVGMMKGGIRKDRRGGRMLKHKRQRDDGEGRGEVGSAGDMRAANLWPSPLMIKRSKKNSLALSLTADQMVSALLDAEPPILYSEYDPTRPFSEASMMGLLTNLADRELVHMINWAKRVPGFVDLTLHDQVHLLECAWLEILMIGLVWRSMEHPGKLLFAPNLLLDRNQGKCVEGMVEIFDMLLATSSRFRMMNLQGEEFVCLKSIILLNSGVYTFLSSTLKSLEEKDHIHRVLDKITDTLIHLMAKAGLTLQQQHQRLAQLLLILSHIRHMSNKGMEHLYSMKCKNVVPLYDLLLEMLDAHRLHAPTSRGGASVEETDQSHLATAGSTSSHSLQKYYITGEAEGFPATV

[2] = biological target: T2, RNA-binding protein pos-1 (Caenorhabditis elegans, UniProt G5EF15); assay: inhibitors of POS-1/mex-3 RNA binding, dose response, biochemical, fluorescence polarization (AID 1964);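 further: purified POS-1 fused to maltose binding protein made in E. coli; potency of compounds blocking POS-1 binding to fluorescent RNA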
T2 sequence (G5EF15 whole entry): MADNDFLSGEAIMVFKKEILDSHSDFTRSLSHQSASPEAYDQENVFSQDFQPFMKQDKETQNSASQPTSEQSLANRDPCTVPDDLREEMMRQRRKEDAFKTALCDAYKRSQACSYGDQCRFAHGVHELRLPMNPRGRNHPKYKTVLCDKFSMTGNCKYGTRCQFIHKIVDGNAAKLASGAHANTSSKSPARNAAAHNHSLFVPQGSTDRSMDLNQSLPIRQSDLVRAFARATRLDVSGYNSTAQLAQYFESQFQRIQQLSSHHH

[3] = biological target: T3, Zinc finger protein mex-5 (Caenorhabditis elegans, UniProt Q9XUB2); assay: MEX-5/TCR-2 RNA interaction inhibitors, dose response, biochemical, C. elegans, fluorescence polarization (AID 1960)
T3 sequence (Q9XUB2 whole entry): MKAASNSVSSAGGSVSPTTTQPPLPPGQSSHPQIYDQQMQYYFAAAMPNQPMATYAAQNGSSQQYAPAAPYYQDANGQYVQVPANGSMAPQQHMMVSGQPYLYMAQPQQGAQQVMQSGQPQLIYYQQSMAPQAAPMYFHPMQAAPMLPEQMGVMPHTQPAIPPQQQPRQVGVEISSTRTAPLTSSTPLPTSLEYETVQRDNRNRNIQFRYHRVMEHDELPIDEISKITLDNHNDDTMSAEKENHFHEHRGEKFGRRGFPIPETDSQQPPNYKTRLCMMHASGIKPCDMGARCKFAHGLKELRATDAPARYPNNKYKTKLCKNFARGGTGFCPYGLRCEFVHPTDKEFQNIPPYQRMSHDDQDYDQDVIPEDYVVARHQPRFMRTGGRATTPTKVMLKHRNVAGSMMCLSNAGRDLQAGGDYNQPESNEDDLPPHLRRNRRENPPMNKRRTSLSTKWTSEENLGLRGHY

[4] = inhibitors of intracellular T. cruzi replication, confirmation, NIH3T3 host cells, beta-gal luminescence (AID 2044); assay type: functional, cell-based;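 further: intracellular parasites grown in NIH/3T3 mouse fibroblasts as host cells; luminescent beta-galactosidase reporter signal from transgenic T. cruzi replicating inside host cells; inhibitors lower the luminescence signal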
[5] = cytotoxicity toward NIH3T3 fibroblasts, dose response, counter-screen, cell-based, ATP luminescence, mouse fibroblasts (AID 2010); assay type: functional;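 further: cells exposed to compound for about 90 hours before reading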
[6] = biological target: Induced myeloid leukemia cell differentiation protein Mcl-1 (Homo sapiens, UniProt Q07820); assay type: functional
Chain of Induced myeloid leukemia cell differentiation protein Mcl-1 (Q07820 whole entry): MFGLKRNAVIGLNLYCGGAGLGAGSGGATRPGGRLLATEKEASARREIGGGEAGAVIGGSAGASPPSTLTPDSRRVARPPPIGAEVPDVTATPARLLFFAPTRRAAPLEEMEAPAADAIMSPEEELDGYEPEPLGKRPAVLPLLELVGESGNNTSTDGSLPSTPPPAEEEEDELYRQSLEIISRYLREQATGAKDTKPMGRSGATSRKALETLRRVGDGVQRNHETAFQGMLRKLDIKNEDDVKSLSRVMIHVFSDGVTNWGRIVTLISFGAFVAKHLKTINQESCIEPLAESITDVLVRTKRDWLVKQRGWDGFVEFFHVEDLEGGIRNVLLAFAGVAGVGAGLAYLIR

[7] = biological target: Nonstructural protein 1 (Influenza A virus, UniProt Q194T2); assay type: functional, Influenza A virus (A/California/07/2009(H1N1))
Chain of Nonstructural protein 1 (Q194T2 whole entry): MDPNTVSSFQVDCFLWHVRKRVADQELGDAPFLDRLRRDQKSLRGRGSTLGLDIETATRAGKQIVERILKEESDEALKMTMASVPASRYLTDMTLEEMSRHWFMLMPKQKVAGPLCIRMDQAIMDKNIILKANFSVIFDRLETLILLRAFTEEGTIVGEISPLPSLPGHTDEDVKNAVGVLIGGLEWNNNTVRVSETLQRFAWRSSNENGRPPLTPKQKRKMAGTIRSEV

[8] = tested on: BJ; assay: cytotoxicity toward BJ-TERT fibroblasts, dose response, cell-based, RAS-independent, luminescence (AID 1933); assay type: functional; conditions: Homo sapiens
[9] = tested on: BJ; assay: cells; assay type: functional, cell-based; conditions: Homo sapiens
[10] = tested on: BJ; assay: cytotoxicity toward BJ-TERT-LT-ST fibroblasts, dose response, cell-based, RAS-independent, luminescence (AID 1935); assay type: functional; conditions: Homo sapiens;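 further: BJ fibroblasts immortalized with TERT plus LT and ST oncogenes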
[11] = cytotoxicity toward DRD oncogenic fibroblasts, dose response, cell-based, non-viral oncogenic, luminescence (AID 1934); assay type: functional; conditions: Homo sapiens
[12] = cytotoxicity in HEK-293T cells, dose response, cytotoxicity control for TCR NF-kB inhibitor project, luminescence, T-cell screen hits (AID 489026); assay type: functional, cell-based;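 further: cells exposed to compound about 14 hours before the viability readout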
[13] = biological target: T4, Cytochrome P450 1A2 (Homo sapiens, UniProt P05177);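 further: PubChem cytochrome P450 panel assay, CYP1A2 panel member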
T4 sequence (P05177 whole entry): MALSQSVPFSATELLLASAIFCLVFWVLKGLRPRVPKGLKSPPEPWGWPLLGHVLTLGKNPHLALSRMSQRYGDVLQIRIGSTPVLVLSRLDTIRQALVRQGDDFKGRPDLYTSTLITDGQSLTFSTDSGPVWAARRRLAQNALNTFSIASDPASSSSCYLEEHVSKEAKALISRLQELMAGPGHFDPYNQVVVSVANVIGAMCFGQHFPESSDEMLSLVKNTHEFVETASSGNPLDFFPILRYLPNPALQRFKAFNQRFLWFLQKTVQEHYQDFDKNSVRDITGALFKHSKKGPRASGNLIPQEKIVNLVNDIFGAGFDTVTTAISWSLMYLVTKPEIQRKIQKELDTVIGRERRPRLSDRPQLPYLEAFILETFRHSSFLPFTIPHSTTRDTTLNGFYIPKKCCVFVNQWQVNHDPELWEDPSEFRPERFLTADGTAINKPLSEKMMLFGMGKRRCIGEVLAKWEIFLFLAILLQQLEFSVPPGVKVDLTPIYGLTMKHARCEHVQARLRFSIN

[14] = biological target: Cytochrome P450 3A4 (Homo sapiens, UniProt P08684);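 further: CYP3A4 tested as one member of a cytochrome P450 panel screen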
Chain of Cytochrome P450 3A4 (P08684 whole entry): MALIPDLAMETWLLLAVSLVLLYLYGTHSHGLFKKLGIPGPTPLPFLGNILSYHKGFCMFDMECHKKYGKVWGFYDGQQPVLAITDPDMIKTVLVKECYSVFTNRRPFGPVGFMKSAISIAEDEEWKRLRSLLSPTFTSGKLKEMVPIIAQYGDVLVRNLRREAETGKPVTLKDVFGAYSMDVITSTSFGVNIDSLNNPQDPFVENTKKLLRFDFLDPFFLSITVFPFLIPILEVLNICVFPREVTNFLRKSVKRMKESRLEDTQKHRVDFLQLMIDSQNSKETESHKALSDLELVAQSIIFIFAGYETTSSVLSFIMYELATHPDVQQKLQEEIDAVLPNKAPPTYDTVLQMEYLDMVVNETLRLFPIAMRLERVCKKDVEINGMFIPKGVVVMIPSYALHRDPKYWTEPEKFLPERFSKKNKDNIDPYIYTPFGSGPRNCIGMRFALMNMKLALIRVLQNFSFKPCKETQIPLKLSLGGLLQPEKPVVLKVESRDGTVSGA

[15] = biological target: T5, Long-chain-fatty-acid--AMP ligase FadD28 (Mycobacterium tuberculosis, UniProt P9WQ59); assay: Fluorescence polarization aasay to screen for inhibitors that compete for the binding of FadD28 to a bisubstrate Measured in Biochemical System Using Plate Reader - 2147-01_Inhibitor_Dose_CherryPick_Activity.; assay type: functional, Mycobacterium tuberculosis H37Rv
T5 sequence (P9WQ59 whole entry): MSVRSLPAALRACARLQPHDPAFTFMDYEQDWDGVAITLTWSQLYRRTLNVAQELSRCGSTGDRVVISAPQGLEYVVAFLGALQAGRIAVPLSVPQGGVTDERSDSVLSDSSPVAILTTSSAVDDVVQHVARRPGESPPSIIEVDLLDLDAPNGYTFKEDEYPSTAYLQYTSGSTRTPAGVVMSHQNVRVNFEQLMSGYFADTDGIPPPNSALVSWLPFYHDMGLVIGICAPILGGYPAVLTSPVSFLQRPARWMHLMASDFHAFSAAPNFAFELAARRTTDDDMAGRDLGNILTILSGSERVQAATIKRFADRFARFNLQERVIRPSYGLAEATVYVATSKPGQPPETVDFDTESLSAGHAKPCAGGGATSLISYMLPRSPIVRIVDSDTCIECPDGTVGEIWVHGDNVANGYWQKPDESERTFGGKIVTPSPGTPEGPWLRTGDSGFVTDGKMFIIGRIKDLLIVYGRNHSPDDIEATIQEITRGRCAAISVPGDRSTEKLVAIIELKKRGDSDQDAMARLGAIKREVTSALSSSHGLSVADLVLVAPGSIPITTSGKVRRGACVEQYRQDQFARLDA

[16] = HEp-2 cell cytotoxicity, dose response, cytotoxicity control for RSV inhibitor project, HTS (AID 2410); assay type: functional; conditions: human respiratory syncytial virus
[17] = tested on: Streptococcus sp. 'group A'; assay: growth inhibition of control SK(-) GAS strain, dose response, counter-screen for streptokinase expression inhibitor project, luminescence, kanamycin, BacTiterGlo, confirmation (AID 1900); assay type: functional, organism-based
[18] = biological target: T6, Streptokinase A (Streptococcus pyogenes serotype M1, UniProt P10520); assay: S. pyogenes streptokinase expression inhibitors, potency, dose response, plasminogen activation absorbance, OD405 (AID 1914); assay type: functional, Streptococcus pyogenes M1 GAS;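 further: secreted streptokinase activity via plasminogen activation per viability signal from cell pellet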
T6 sequence (P10520 whole entry): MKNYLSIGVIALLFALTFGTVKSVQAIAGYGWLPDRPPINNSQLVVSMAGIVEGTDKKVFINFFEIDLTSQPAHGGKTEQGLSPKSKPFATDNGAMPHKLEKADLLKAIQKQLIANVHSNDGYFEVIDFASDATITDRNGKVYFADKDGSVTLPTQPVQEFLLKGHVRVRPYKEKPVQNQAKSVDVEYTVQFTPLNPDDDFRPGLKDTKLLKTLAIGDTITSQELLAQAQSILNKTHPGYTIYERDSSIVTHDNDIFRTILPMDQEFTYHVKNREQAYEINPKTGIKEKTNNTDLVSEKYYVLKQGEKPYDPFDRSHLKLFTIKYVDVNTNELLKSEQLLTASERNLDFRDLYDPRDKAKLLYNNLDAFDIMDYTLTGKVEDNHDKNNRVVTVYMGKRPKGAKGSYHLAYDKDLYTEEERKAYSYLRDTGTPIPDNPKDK

[19] = tested on: Streptococcus; assay: Group A Streptococcus viability loss, dose response, counter-screen for streptokinase expression inhibitor project, luminescence, BacTiterGlo (AID 1915); assay type: functional, organism-based;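 further: potency for reduction of bacterial viability or growth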
[20] = biological target: Cytochrome P450 2C19 (Homo sapiens, UniProt P33261); assay: Cytochrome panel assay with activity outcomes. Panel member name: p450-cyp2c19 Compounds with AC50 equal or less than 10 uM are considered active; assay type: functional; conditions: read-out: AC50
Chain of Cytochrome P450 2C19 (P33261 whole entry): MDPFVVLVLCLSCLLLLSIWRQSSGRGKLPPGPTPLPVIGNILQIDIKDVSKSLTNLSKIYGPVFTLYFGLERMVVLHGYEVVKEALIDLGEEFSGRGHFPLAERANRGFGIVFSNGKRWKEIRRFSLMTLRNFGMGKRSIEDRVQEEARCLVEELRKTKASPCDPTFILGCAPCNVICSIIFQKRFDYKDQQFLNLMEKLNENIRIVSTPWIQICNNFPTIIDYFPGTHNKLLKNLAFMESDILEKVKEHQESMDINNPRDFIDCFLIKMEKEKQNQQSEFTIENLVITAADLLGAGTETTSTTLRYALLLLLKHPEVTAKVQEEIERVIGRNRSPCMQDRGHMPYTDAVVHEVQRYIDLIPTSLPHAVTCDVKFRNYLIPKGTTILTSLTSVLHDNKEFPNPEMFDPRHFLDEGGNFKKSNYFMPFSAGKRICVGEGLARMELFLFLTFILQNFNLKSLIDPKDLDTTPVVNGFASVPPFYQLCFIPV

[21] = biological target: Cytochrome P450 2C9 (Homo sapiens, UniProt P11712)
Chain of Cytochrome P450 2C9 (P11712 whole entry): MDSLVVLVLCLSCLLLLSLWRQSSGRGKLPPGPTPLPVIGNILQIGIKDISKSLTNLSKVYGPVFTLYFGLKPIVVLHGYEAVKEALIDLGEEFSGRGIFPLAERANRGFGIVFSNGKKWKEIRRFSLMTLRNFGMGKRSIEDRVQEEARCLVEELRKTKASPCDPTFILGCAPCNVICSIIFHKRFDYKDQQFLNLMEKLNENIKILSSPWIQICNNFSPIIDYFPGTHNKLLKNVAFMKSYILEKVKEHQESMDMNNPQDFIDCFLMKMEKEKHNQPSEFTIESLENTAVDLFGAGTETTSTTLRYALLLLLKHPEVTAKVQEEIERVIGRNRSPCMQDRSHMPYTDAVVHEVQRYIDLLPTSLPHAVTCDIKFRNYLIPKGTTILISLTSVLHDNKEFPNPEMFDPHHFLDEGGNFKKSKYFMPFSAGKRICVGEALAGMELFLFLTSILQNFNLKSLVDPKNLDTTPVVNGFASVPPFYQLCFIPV

[22] = tested on: INS1; assay: beta cell apoptosis inhibitors, cytokine rescue, dose response, luminescence, retest (AID 449756); assay type: functional, cell-based; conditions: Rattus norvegicus;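 further: cell death triggered by IL-1 beta plus TNF-alpha plus IFN-gamma mixture; protective hits raise ATP signal compared with cytokine alone wells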
[23] = biological target: Cytochrome P450 2D6 (Homo sapiens, UniProt P10635);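 further: CYP2D6 member of a cytochrome P450 panel assay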
Chain of Cytochrome P450 2D6 (P10635 whole entry): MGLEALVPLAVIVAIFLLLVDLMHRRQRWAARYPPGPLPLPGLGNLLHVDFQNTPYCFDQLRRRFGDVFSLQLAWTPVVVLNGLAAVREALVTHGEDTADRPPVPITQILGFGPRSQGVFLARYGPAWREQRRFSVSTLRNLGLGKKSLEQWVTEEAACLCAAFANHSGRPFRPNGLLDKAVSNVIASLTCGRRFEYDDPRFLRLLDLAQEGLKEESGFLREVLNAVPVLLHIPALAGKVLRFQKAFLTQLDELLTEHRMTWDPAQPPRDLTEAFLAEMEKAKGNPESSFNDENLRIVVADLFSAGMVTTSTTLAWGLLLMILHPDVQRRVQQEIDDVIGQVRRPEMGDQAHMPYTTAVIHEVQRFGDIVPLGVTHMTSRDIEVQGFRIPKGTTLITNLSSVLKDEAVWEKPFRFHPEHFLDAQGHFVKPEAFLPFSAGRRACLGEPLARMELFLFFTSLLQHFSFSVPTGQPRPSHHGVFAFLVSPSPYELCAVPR

COc1cccc2cc(-c3cn4ccc(C)cc4n3)c(=O)oc12
IC50 [1]: 7.85 µM (active)

N=c1c(C(=O)NCc2ccc(F)cc2)cc2c(=O)n3ccccc3nc2n1Cc1cccnc1
EC50 [2]: 31.2 µM (inconclusive)
EC50 [3]: 46 µM (active)
IC50 [1]: 7.04 µM (active)
EC50 [4]: 1.22 µM (active)
EC50 [5]: > 60 µM (not active)

O=C1NN(c2ccc(Cl)c(Cl)c2)C(=O)/C1=C/c1cccc(OC(=O)c2cccs2)c1
IC50 [1]: > 50 µM (not active)
IC50 [6]: 3.81 µM (active)

COc1cc(OC)c2c(-c3ccccc3)cc(=O)oc2c1C(CCN1CCCCC1)c1ccc(N(C)C)cc1 (stereo not given)
IC50 [7]: 11.9 µM (active)

CCOC(=O)c1[nH]c2c(c1C)C(=O)CC(c1ccco1)C2 (stereo not given)
EC50 [8]: 0.334 µM (active)
EC50 [9]: 0.594 µM (active)
IC50 [1]: 30.3 µM (not active)
EC50 [10]: 0.354 µM (inconclusive)
EC50 [11]: 0.328 µM (active)
IC50 [6]: 6.08 µM (active)
IC50 [12]: > 80 µM (inactive)

O=C(c1cccc(F)c1)N1CCC2(CC1)CCN(c1cccc(-c3ccccc3)c1)CC2
AC50 [13]: 20 µM (inconclusive)
AC50 [14]: inconclusive

O=C(NCCSCc1ccccc1)c1ccc(Cl)c(S(=O)(=O)N2CCOCC2)c1
AC50 [15]: > 100 µM (inactive)

O=C1NC(=S)N(C2CC2)C(=O)/C1=C/NNC(=O)c1ccccc1Cl
IC50 [7]: 20.4 µM (active)

CC(C)(C)c1nnc(NC(=O)c2cc(-c3ccccc3)nc3ccccc23)s1
CC50 [16]: 14.1 µM (active)
EC50 [17]: 9.69 µM (active)
EC50 [18]: > 150 µM (not active)
EC50 [19]: 49.3 µM (active)
AC50 [14]: inconclusive

Cc1ccc(CNC(=O)C(Cc2ccccc2)NS(=O)(=O)c2ccc(Br)s2)cc1 (stereo not given)
AC50 [15]: 6.7 µM (active)

O=C(c1ccc(Cl)cc1)N1CCN(c2cc(O)nnc2-c2ccccc2)CC1
AC50 [20]: 1.41 µM (inconclusive)
AC50 [21]: 0.355 µM (inconclusive)
AC50 [14]: inconclusive

CCOc1ccccc1/C=c1\sc2nc(-c3ccco3)nn2c1=O
IC50 [1]: > 50 µM (not active)

Cc1ccc(C2C(/C=N/c3c(C)n(C)n(-c4ccccc4)c3=O)=C(c3ccccc3)Oc3ccccc32)cc1 (stereo not given)
IC50 [7]: > 100 µM (active)
AC50 [20]: 3.16 µM (inconclusive)
AC50 [22]: 6.97 µM (active)
AC50 [21]: 2.24 µM (inconclusive)

Cc1c(C2CCN(CCc3ccccc3)CC2)noc1-c1ccc(Cl)cc1
AC50 [23]: 1.58 µM (inconclusive)
AC50 [13]: 25.1 µM (inconclusive)
AC50 [14]: inconclusive

Cc1cccc(C)c1NC(=O)CN1CCN(CCCC(c2ccc(F)cc2)c2ccc(F)cc2)CC1 [LIDOFLAZINE]
AC50 [13]: 15.8 µM (inconclusive)
AC50 [21]: 15.8 µM (inconclusive)
AC50 [14]: inconclusive

Source: ChEMBL document CHEMBL1201862, “PubChem BioAssay data set” (2004)
